Laboratory results from the kinase profiling compilation of Christmann-Franck et al. (2016).

These compounds were tested against STK38 (human) (UniProt Q15208) (assay: radiometric filter-binding kinase assay, Kinase HotSpot). Conditions: compound 0.5 µM; ATP 10 µM.
Chain of STK38 (human) (Q15208 whole entry, looked up): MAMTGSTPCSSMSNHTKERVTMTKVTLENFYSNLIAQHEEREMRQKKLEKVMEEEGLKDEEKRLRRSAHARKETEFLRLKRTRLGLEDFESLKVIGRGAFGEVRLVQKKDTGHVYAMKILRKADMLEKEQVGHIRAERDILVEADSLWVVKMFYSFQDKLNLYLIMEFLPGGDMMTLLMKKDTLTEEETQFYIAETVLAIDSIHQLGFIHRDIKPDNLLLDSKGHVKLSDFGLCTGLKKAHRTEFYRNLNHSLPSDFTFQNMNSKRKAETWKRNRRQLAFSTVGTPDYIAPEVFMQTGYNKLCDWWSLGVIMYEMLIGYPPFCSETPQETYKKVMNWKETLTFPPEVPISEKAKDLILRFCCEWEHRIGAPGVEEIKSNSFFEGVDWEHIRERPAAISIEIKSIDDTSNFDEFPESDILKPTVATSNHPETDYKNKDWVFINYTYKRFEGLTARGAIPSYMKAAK
For `CN[C@@H]1C[C@H]2O[C@@](C)([C@@H]1OC)n1c3ccccc3c3c4c(c5c6ccccc6n2c5c31)C(=O)NC4`, the residual activity was 10%. For `COc1cc2c(N3CCN(C(=O)Nc4ccc(OC(C)C)cc4)CC3)ncnc2cc1OCCCN1CCCCC1`, the residual activity was 99.1%. Work on `O=c1cc(N2CCOCC2)oc2c(-c3ccccc3)cccc12` yielded a residual activity of 103%. With `Nc1ncnc2c1cnn2-c1ccccc1` the residual activity was 98.6%.

Each compound was assayed against ULK3 (human) (UniProt Q6PHR2) in the same assay as above. Conditions: compound 0.5 µM; ATP 10 µM.
In the case of `CN[C@@H]1C[C@H]2O[C@@](C)([C@@H]1OC)n1c3ccccc3c3c4c(c5c6ccccc6n2c5c31)C(=O)NC4`, the residual activity is reported as 1.82%. Work on `COc1cc2c(N3CCN(C(=O)Nc4ccc(OC(C)C)cc4)CC3)ncnc2cc1OCCCN1CCCCC1` yielded a residual activity of 101%. For `O=c1cc(N2CCOCC2)oc2c(-c3ccccc3)cccc12`, the residual activity was 103%. `Nc1ncnc2c1cnn2-c1ccccc1` was tested, and the residual activity was 98.9%.

The compounds below were run against PAK6 (human) (UniProt Q9NQU5) in the same assay as above. Conditions: compound 0.5 µM; ATP 10 µM.
Chain of PAK6 (human) (Q9NQU5 whole entry, looked up): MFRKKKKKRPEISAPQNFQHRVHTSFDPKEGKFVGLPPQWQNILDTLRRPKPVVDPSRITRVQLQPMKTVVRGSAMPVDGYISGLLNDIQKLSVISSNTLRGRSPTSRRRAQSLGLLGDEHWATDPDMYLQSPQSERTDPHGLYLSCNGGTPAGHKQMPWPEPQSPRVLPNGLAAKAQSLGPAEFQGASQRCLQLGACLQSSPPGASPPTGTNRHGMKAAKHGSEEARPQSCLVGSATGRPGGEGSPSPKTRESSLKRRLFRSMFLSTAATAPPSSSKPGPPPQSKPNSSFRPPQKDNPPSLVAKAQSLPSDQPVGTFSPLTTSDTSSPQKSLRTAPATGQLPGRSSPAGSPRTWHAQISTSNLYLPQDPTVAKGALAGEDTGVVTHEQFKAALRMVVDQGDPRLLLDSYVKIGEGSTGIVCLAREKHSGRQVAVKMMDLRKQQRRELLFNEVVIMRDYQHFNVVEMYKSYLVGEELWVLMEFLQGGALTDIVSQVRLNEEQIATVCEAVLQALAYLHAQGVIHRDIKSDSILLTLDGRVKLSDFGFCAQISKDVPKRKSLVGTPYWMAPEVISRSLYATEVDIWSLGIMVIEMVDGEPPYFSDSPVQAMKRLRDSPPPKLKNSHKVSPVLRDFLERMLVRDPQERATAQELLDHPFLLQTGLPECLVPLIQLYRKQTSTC
Compound `N#Cc1c(NC(=O)c2cccc3ccccc23)sc2c1CCCC2` has a residual activity of 101%. For `COc1cc2c(N3CCN(C(=O)Nc4ccc(OC(C)C)cc4)CC3)ncnc2cc1OCCCN1CCCCC1`, the residual activity was 101%. Compound `O=c1cc(N2CCOCC2)oc2c(-c3ccccc3)cccc12` has a residual activity of 115%. `Nc1ncnc2c1cnn2-c1ccccc1` gave a residual activity of 100%.

The compounds below were run against TLK2 (human) (UniProt Q86UE8) in the same assay as above. Conditions: compound 0.5 µM; ATP 10 µM.
Chain of TLK2 (human) (Q86UE8 whole entry, looked up): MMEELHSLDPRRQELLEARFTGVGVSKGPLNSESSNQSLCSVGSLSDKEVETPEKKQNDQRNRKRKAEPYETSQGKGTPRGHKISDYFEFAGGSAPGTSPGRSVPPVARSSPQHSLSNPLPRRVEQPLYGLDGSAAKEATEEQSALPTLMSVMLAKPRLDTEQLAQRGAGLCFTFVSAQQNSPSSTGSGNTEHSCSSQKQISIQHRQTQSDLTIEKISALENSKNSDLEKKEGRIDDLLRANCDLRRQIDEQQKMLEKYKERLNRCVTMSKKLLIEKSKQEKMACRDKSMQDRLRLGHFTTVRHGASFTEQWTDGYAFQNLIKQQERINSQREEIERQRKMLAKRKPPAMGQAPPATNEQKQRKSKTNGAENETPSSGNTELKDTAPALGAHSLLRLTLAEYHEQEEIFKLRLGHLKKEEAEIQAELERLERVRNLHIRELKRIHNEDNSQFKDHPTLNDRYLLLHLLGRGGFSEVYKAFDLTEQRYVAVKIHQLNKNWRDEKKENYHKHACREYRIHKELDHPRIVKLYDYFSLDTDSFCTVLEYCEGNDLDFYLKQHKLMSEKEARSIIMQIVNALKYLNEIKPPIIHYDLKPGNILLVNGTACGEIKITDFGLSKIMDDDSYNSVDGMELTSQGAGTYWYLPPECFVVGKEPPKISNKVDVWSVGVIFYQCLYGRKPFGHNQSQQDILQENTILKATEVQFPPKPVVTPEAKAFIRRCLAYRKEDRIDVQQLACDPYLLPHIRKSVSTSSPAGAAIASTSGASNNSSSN
Compound `N#Cc1c(NC(=O)c2cccc3ccccc23)sc2c1CCCC2` has a residual activity of 98.9%. `COc1cc2c(N3CCN(C(=O)Nc4ccc(OC(C)C)cc4)CC3)ncnc2cc1OCCCN1CCCCC1` showed a residual activity of 96.2%. `O=c1cc(N2CCOCC2)oc2c(-c3ccccc3)cccc12` showed a residual activity of 83.2%. Compound `Nc1ncnc2c1cnn2-c1ccccc1` has a residual activity of 110%.

Each compound was assayed against MAP3K7 TAB1 (human) (UniProt O43318+Q15750) in the same assay as above. Conditions: compound 0.5 µM; ATP 10 µM.
Chain of MAP3K7 TAB1 (human) (O43318 whole entry, looked up): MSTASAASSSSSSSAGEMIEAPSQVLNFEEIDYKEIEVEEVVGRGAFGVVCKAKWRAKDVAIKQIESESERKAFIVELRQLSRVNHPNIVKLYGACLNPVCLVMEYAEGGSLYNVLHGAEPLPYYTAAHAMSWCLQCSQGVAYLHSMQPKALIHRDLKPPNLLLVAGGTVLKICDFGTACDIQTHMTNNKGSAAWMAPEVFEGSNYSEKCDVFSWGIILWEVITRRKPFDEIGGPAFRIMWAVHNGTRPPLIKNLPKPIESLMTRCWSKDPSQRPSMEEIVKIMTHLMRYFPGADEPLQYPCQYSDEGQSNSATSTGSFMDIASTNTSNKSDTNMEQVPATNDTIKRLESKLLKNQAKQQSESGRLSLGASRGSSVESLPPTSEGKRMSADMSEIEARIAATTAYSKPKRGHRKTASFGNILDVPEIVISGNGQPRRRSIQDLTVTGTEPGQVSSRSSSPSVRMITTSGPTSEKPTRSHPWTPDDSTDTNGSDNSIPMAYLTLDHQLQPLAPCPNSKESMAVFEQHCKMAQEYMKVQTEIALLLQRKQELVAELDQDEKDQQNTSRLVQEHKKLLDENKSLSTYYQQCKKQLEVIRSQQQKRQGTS
Chain of MAP3K7 TAB1 (human) (Q15750 whole entry, looked up): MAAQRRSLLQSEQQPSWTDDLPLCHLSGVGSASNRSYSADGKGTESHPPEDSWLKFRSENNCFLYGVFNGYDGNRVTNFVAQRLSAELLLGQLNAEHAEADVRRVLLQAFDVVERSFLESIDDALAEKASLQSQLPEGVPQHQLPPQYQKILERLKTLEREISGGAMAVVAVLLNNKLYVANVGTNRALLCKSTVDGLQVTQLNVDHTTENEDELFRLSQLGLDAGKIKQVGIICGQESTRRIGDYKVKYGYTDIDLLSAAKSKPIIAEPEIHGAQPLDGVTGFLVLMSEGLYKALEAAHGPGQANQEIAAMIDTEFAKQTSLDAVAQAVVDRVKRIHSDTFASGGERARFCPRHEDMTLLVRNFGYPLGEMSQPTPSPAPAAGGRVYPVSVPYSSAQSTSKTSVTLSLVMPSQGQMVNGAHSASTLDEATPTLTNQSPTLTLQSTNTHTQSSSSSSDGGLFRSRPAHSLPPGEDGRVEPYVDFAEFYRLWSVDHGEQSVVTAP
`N#Cc1c(NC(=O)c2cccc3ccccc23)sc2c1CCCC2` showed a residual activity of 99.7%. `COc1cc2c(N3CCN(C(=O)Nc4ccc(OC(C)C)cc4)CC3)ncnc2cc1OCCCN1CCCCC1` showed a residual activity of 91.8%. Compound `O=c1cc(N2CCOCC2)oc2c(-c3ccccc3)cccc12` has a residual activity of 85.4%. With `Nc1ncnc2c1cnn2-c1ccccc1` the residual activity was 98.9%.

What follows are compounds tested against PRKD1 (human) (UniProt Q15139) in the same assay as above. Conditions: compound 0.5 µM; ATP 10 µM.
Compound `N#Cc1c(NC(=O)c2cccc3ccccc23)sc2c1CCCC2` has a residual activity of 101%. `COc1cc2c(N3CCN(C(=O)Nc4ccc(OC(C)C)cc4)CC3)ncnc2cc1OCCCN1CCCCC1` showed a residual activity of 96.1%. `O=c1cc(N2CCOCC2)oc2c(-c3ccccc3)cccc12` was tested, and the residual activity was 98.3%. Work on `Nc1ncnc2c1cnn2-c1ccccc1` yielded a residual activity of 98.1%.

These compounds were tested against MYO3B (human) (UniProt Q8WXR4) in the same assay as above. Conditions: compound 0.5 µM; ATP 10 µM.
Chain of MYO3B (human) (Q8WXR4 whole entry, looked up): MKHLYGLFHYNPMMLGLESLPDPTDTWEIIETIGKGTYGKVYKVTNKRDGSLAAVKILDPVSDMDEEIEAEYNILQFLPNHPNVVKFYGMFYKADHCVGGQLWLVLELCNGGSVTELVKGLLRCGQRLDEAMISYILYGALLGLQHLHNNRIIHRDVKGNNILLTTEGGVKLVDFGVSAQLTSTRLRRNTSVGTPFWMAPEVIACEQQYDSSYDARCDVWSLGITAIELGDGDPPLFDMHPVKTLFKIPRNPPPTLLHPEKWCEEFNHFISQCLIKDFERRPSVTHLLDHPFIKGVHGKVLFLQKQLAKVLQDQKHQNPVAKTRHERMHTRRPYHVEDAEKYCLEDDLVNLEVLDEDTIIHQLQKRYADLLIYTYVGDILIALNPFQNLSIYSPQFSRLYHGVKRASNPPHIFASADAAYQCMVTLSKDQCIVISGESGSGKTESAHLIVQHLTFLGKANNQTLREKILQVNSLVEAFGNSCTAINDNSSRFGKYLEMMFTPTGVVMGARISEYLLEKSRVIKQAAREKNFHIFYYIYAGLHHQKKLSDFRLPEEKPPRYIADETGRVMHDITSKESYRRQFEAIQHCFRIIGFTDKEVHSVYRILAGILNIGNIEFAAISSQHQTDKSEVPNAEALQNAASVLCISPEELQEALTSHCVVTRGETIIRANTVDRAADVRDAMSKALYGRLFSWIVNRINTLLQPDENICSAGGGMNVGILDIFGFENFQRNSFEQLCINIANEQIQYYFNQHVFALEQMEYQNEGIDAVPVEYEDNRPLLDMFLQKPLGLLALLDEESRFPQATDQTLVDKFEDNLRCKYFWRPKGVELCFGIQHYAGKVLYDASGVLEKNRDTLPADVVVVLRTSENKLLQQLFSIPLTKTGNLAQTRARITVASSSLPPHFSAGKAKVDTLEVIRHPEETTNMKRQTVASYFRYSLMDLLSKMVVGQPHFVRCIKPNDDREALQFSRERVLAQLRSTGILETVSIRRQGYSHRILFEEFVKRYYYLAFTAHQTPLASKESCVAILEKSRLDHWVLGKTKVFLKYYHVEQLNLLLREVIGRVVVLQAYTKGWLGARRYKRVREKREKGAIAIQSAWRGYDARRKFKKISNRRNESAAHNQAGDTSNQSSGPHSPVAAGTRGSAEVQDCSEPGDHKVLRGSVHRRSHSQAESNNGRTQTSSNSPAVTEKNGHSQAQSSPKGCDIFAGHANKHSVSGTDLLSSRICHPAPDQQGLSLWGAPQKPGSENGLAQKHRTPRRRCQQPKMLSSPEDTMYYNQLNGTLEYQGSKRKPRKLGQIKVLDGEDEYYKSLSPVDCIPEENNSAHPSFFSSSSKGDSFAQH
For `N#Cc1c(NC(=O)c2cccc3ccccc23)sc2c1CCCC2`, the residual activity was 107%. Work on `COc1cc2c(N3CCN(C(=O)Nc4ccc(OC(C)C)cc4)CC3)ncnc2cc1OCCCN1CCCCC1` yielded a residual activity of 88.5%. For `O=c1cc(N2CCOCC2)oc2c(-c3ccccc3)cccc12`, the residual activity was 104%. In the case of `Nc1ncnc2c1cnn2-c1ccccc1`, the residual activity is reported as 93.4%.

What follows are compounds tested against LCK (human) (UniProt P06239) in the same assay as above. Conditions: compound 0.5 µM; ATP 10 µM.
`N#Cc1c(NC(=O)c2cccc3ccccc23)sc2c1CCCC2` gave a residual activity of 102%. Work on `COc1cc2c(N3CCN(C(=O)Nc4ccc(OC(C)C)cc4)CC3)ncnc2cc1OCCCN1CCCCC1` yielded a residual activity of 87.1%. Compound `Nc1ncnc2c1cnn2-c1ccccc1` has a residual activity of 95.5%.

These compounds were tested against CSK (human) (UniProt P41240) in the same assay as above. Conditions: compound 0.5 µM; ATP 10 µM.
Chain of CSK (human) (P41240 whole entry, looked up): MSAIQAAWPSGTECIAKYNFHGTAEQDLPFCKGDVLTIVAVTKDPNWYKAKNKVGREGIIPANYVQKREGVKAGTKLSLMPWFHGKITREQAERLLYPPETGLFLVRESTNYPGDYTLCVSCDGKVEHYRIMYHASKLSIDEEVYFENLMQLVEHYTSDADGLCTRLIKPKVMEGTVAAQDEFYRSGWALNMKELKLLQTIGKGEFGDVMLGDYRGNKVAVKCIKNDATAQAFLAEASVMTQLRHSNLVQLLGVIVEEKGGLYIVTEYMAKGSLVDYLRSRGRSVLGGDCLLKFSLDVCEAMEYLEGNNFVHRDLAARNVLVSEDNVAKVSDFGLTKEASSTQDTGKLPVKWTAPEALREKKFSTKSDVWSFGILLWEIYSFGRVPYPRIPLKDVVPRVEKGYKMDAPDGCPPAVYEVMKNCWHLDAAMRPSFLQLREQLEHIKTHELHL
In the case of `N#Cc1c(NC(=O)c2cccc3ccccc23)sc2c1CCCC2`, the residual activity is reported as 91.5%. Compound `CN[C@@H]1C[C@H]2O[C@@](C)([C@@H]1OC)n1c3ccccc3c3c4c(c5c6ccccc6n2c5c31)C(=O)NC4` has a residual activity of 8.01%. For `COc1cc2c(N3CCN(C(=O)Nc4ccc(OC(C)C)cc4)CC3)ncnc2cc1OCCCN1CCCCC1`, the residual activity was 99.3%. Work on `O=c1cc(N2CCOCC2)oc2c(-c3ccccc3)cccc12` yielded a residual activity of 88.1%. `Nc1ncnc2c1cnn2-c1ccccc1` was tested, and the residual activity was 86.8%.

These compounds were tested against ZAP70 (human) (UniProt P43403) in the same assay as above. Conditions: compound 0.5 µM; ATP 10 µM.
`N#Cc1c(NC(=O)c2cccc3ccccc23)sc2c1CCCC2` was tested, and the residual activity was 95%. With `COc1cc2c(N3CCN(C(=O)Nc4ccc(OC(C)C)cc4)CC3)ncnc2cc1OCCCN1CCCCC1` the residual activity was 116%. In the case of `O=c1cc(N2CCOCC2)oc2c(-c3ccccc3)cccc12`, the residual activity is reported as 102%. `Nc1ncnc2c1cnn2-c1ccccc1` showed a residual activity of 91.5%.

Each compound was assayed against TTK (human) (UniProt P33981) in the same assay as above. Conditions: compound 0.5 µM; ATP 10 µM.
In the case of `N#Cc1c(NC(=O)c2cccc3ccccc23)sc2c1CCCC2`, the residual activity is reported as 85.5%.
